The values below come from patent publication US20080274522A1, “METHOD FOR THE PRODUCTION OF 2-BUTANONE” (priority 2007, published 2008).

The experiment relates to glycerol dehydratase. The experiment in a line: Butanediol dehydratase activity of glycerol dehydratase. Format: biochemical, Klebsiella pneumoniae. The note with it: 10 mM meso-2,3-butanediol, 12 μM coenzyme B12, pH 8.2, 37° C., crude cell free extract of KLP23/pSYCO12. The text has this: Glycerol dehydratase (E.C. 4.2.1.30) and diol dehydratase (E.C. 4.2.1.28), while structurally related, are often distinguished in the art based on various differences that include substrate specificity. […] The recombinant E. coli strain KLP23/pSYCO12, comprising Klebsiella pneumoniae genes encoding the multiple subunits of glycerol dehydratase (alpha: SEQ ID NO:145 (coding region) and 146 (protein); beta: SEQ ID NO: 147 (coding region) and 148 (protein); and gamma: SEQ ID NO: 149 (coding region) and 150 (protein)) and Klebsiella pneumoniae genes encoding the multiple subunits of glycerol dehydratase reactivase (large subunit, SEQ ID NO: 151 (coding region) and 152 (protein); and small subunit, SEQ ID NO: 153 (coding region) and 154 (protein)), is described in Emptage et al. U.S. Pat. No. 6,514,733 and in WO 2003089621, which are herein incorporated by reference. A crude, cell free extract of KLP23/pSYCO12 was prepared by methods known to one skilled in the art. […] The formation of 2-butanone was monitored by HPLC (Shodex SH-1011 column and SH-G guard column with refractive index detection; 0.01 M H2SO4 as the mobile phase at a flow rate of 0.5 mL/min and a column temperature of 50° C.; 2-butanone retention time=40.2 min). The rate of 2-butanone formation by the glycerol dehydratase preparation was determined to be 0.4 nmol/min/mg of crude protein.

For the compound `CC(O)C(C)O` (stereo not drawn) [meso-2,3-butanediol], the “Rate of 2-butanone formation” value is listed as 0.4 nmol/min/mg of crude protein.
